IC50 data for twelve compounds are collected here from patent publication US10800788B2, “4-(aryl)-N-(3-alkoxyfuro[2,3-b]pyrazin-2-yl)-piperazine-1-carboxamide derivative and antiproliferative effect thereof” (Dongguk University Industry-Academic Cooperation Foundation, priority 2016, dated 2020).

A value given as a limit tells only on which side of the number the result lay.

The term IC50 denotes the concentration at which inhibition is half-maximal.

Experiment [1] relates to PANC-1 (pancreatic cancer) cell line. Nature of the experiment: Cell growth inhibition experiment (SRB), PANC-1. The conditions noted are these: Homo sapiens, PANC-1, 96 h, 96 hours incubation. The experiment is classed as cell-based. The method, then: (§1) The cell lines below were used in order to confirm the efficacy of the compounds synthesized in Examples 1 to 60. Human PANC-1 (pancreatic cancer) and MDA-MB-231 (breast cancer) cell lines were obtained from the American Type Culture Collection (ATCC; Manassas, Va.); and HN31 (head and neck cancer) and UMRC2 (kidney cancer) cell lines were secured from the United States National Institutes of Health (Bethesda, Md.). The MDA-MB-231, UMRC2, HN31, and PANC-1 cell lines were cultured in Dulbecco modified Eagle medium (DMEM; Invitrogen, Carlsbad, Calif.) containing FBS (10%), HEPES (10 mM), penicillin (100 U/mL), and streptomycin (100 μg/mL). All cell lines were cultured in an incubator (37° C., 5% CO2).
(§2) The 4-(aryl)-N-(3-alkoxyfuro[2,3-b]pyrazin-2-yl)-piperazine-1-carboxamide derivative compounds synthesized according to Examples 1 to 60 of the present invention were treated with various human tissue-derived cancer cell lines cultured according to Experimental Example 1, and thus the inhibitory effect of the growth of human cancer cells was confirmed. The cell growth inhibition experiment was conducted using the sulforhodamine B (SRB) technique (Skehan et al., J. National Cancer Institute, 1990, 82: 1107-1112). Specifically, each cell line was seeded in a 96-well plate at a density of 2 to 3×10^3 cells/well, cultured overnight, and then treated with the 4-(aryl)-N-(3-alkoxyfuro[2,3-b]pyrazin-2-yl)-piperazine-1-carboxamide derivative compounds of the present invention. The experiment was repeated 3 times for each compound. Cells treated with each compound were additionally incubated for 96 hours, fixed with 10% trichloroacetic acid (TCA), and then left at 4° C. for 1 hour. The resultant was washed 3 times with distilled water. Thereafter, each cell was treated with 0.4% sulforhodamine B dissolved in 1% acetic acid, stained for 30 minutes, and then washed 4 times with 1% acetic acid. The resultant was dried in the air. After shaking the resultant in Tris solution (10 mM) for 5 minutes, the absorbance was measured at 530 nm using a Benchmark Plus Microplate reader (Bio-Rad Laboratories, Hercules, Calif.).
(§3) In order to convert the OD530 value to the number of viable cells per each well, the measured OD530 value was compared to the standard OD530-vs.-cell number curve of each cell line. The percent survival was calculated using the following formula: % survival=Nlive cells(test)/Nlive cells(control)×100

The subject of a further experiment is HUVEC. Briefly: Cell growth inhibition experiment (SRB), HUVEC. The format is cell-based, human. The conditions noted are these: Homo sapiens, HUVEC, 96 h, 96 hours incubation, read-out: IC50 (μM) […]. The method, then: as §2, §3
Experiment [2] has as its system UMRC2 (kidney cancer) cell line. Nature of the experiment: Cell growth inhibition experiment (SRB), UMRC2. The conditions noted are these: Homo sapiens, UMRC2, 96 h, 96 hours incubation. The format is cell-based, human. The method, then: as §1, §2, §3
A further experiment relates to SK-OV-3. Briefly: Cell growth inhibition experiment (SRB), SK-OV-3. To be noted: Homo sapiens, SK-OV-3, 96 h, 96 hours incubation, read-out: IC50 (μM) for cancer cell line SK-OV-3. The format is cell-based, human. The method, then: as §2, §3
Experiment [3] deals with MDA-MB-231 (breast cancer) cell line. Nature of the experiment: Cell growth inhibition experiment (SRB), MDA-MB-231. The experiment is classed as cell-based, human. The conditions noted are these: Homo sapiens, MDA-MB-231, 96 h, 96 hours incubation. The method, then:
as §1, §2, §3

Another experiment has as its system HT29. Nature of the experiment: Cell growth inhibition experiment (SRB), HT29. The experiment is classed as cell-based, human. The conditions noted are these: Homo sapiens, HT-29, 96 h, 96 hours incubation, read-out: IC50 (μM) for cancer cell line HT29. The method, then: as §2, §3
In experiment [4] the test system is HN31 (head and neck cancer) cell line. Nature of the experiment: Cell growth inhibition experiment (SRB), HN31. To be noted: Homo sapiens, 96 h, 96 hours incubation. The format is cell-based, human. The method, then: as §1, §2, §3
For another experiment, the system named is HEK293. Nature of the experiment: Cell growth inhibition experiment (SRB), HEK293. The conditions noted are these: Homo sapiens, HEK293, 96 h, 96 hours incubation, read-out: IC50 (μM) for cancer cell line HEK293. The experiment is classed as cell-based, human. The method, then:
as §2, §3

For another experiment, the system named is A549. Briefly: Cell growth inhibition experiment (SRB), A549. The experiment is classed as cell-based. To be noted: Homo sapiens, A549, 96 h, 96 hours incubation, read-out: IC50 (μM) for cancer cell line A549. The method, then: as §2, §3

With `CCOc1nc2oc(Cl)cc2nc1NC(=O)N1CCN(c2cc(OC)cc(OCCN(C)C)c2)CC1` [Example 54, N-(6-Chloro-3-ethoxyfuro[2,3-b]pyrazin-2-yl)-4-(3-(2-(dimethylamino)ethoxy)-5-methoxyphenyl)piperazine-1-carboxamide], the IC50 is 1.88 µM in [1]; 1.75 µM with HUVEC; 1.32 µM in [2]; less than 2.5 µM in the experiment with SK-OV-3; 1.68 µM in experiment [3]; less than 2.5 µM in the experiment with HT29. In addition, the IC50 in experiment [4] was found to be 1.78 µM; with HEK293 it was 1.65 µM; in the experiment with A549, 1.86 µM.

`CCOc1nc2oc(Cl)cc2nc1NC(=O)N1CCN(c2cc(C(F)(F)F)cc(C(F)(F)F)c2)CC1` [Example 59, 4-(3,5-Bis(trifluoromethyl)phenyl)-N-(6-chloro-3-ethoxyfuro[2,3-b]pyrazin-2-yl)piperazine-1-carboxamide]: the IC50 in experiment [1] was 1.98 µM; in the experiment on HUVEC it was less than 2.5 µM; in [2] it was 1.87 µM; in the experiment with SK-OV-3 it was less than 2.5 µM; in experiment [3], 1.68 µM; in the experiment on HT29, less than 2.5 µM. The IC50 (in [4]; with HEK293; in the experiment with A549) was less than 2.5 µM in each case.

For `CCOc1nc2oc(C)cc2nc1NC(=O)N1CCN(c2cc(C)cc(F)c2)CC1` [Example 36, N-(3-Ethoxy-6-methylfuro[2,3-b]pyrazin-2-yl)-4-(3-fluoro-5-methylphenyl)piperazine-1-carboxamide], the IC50 in experiment [1] worked out at 0.12 µM; with HUVEC it was 1.12 µM; in [2], 0.36 µM; in the experiment on SK-OV-3 it was 1.12 µM; in experiment [3], 0.45 µM; in the experiment on HT29 it was 1.12 µM. Besides, the IC50 in experiment [4] stood at 0.36 µM; in the experiment on HEK293, 1.32 µM; in the experiment on A549, 1.32 µM.

For `CCOc1nc2occc2nc1NC(=O)N1CCN(c2cc(OC)cc(OC)c2)CC1` [Example 11, 4-(3,5-Dimethoxyphenyl)-N-(3-ethoxyfuro[2,3-b]pyrazin-2-yl)piperazine-1-carboxamide], the IC50 amounted to 0.24 µM in experiment [1]; 0.07 µM in the experiment with HUVEC; 0.07 µM in experiment [2]; 1.27 µM in the experiment with SK-OV-3; 0.07 µM in experiment [3]; 1.31 µM with HT29. In addition, the half-inhibitory concentration (IC50) was 0.41 µM in experiment [4], 0.65 µM in the experiment with HEK293 and 1.51 µM in the experiment with A549.

`CCOc1nc2occc2nc1NC(=O)N1CCN(c2cc(C)cc(F)c2)CC1` [Example 16, N-(3-Ethoxyfuro[2,3-b]pyrazin-2-yl)-4-(3-fluoro-5-methylphenyl)piperazine-1-carboxamide]: the IC50 in experiment [1] was less than 2.5 µM; in the experiment on HUVEC it was less than 2.5 µM; in experiment [2], 0.44 µM; with SK-OV-3, less than 2.5 µM; in [3], 0.24 µM; in the experiment on HT29, less than 2.5 µM. The IC50 (in [4]; with HEK293; in the experiment on A549) was less than 2.5 µM each time.

Consider `CCOc1nc2occc2nc1NC(=O)N1CCN(c2cc(C(F)(F)F)cc(C(F)(F)F)c2)CC1` [Example 19, 4-(3,5-Bis(trifluoromethyl)phenyl)-N-(3-ethoxyfuro[2,3-b]pyrazin-2-yl)piperazine-1-carboxamide], for which the IC50 in experiment [1] was 1.23 µM; in the experiment on HUVEC, 0.68 µM; in [2], 0.68 µM; in the experiment on SK-OV-3, less than 2.5 µM; in experiment [3], 0.34 µM; with HT29 it was 0.71 µM. In addition, the figures for the IC50 (in experiment [4]; with HEK293; with A549) were 0.36 µM, 1.23 µM and 0.44 µM, respectively.

With `COc1cc(F)cc(N2CCN(C(=O)Nc3nc4cc(C)oc4nc3OC)CC2)c1` [Example 23, 4-(3-Fluoro-5-methoxyphenyl)-N-(3-methoxy-6-methylfuro[2,3-b]pyrazin-2-yl)piperazine-1-carboxamide], the IC50 in experiment [1] worked out at 0.44 µM; in the experiment on HUVEC it was 0.45 µM; in experiment [2] it was 0.44 µM; in the experiment on SK-OV-3, 0.36 µM; in experiment [3] it was 0.36 µM; with HT29, 0.28 µM. Moreover, the concentration for half-maximal inhibition (IC50) in experiment [4] stood at 0.28 µM; in the experiment with HEK293, 0.35 µM; in the experiment with A549, 0.63 µM.

Take `CCOc1nc2oc(Cl)cc2nc1NC(=O)N1CCN(c2cc(F)cc(C(F)(F)F)c2)CC1` [Example 58, N-(6-Chloro-3-ethoxyfuro[2,3-b]pyrazin-2-yl)-4-(3-fluoro-5-(trifluoromethyl)phenyl)piperazine-1-carboxamide]: the IC50 (in experiment [1]; in the experiment on HUVEC; in [2]; in the experiment on SK-OV-3; in experiment [3]; in the experiment on HT29) was less than 2.5 µM each time. For the same compound, the IC50 (in [4]; in the experiment with HEK293; in the experiment with A549) was less than 2.5 µM throughout.

Turning to `COc1cc(OC)cc(N2CCN(C(=O)Nc3nc4cc(C)oc4nc3OC)CC2)c1` [Example 21, 4-(3,5-Dimethoxyphenyl)-N-(3-methoxy-6-methylfuro[2,3-b]pyrazin-2-yl)piperazine-1-carboxamide], the IC50 was 2.12 µM in experiment [1]; less than 2.5 µM in the experiment on HUVEC; 1.74 µM in experiment [2]; 1.85 µM in the experiment with SK-OV-3; 0.44 µM in [3]; 1.85 µM in the experiment with HT29. Besides, the IC50 is less than 2.5 µM in experiment [4], 1.25 µM in the experiment with HEK293 and 1.63 µM with A549.

Take `CCOc1nc2oc(Cl)cc2nc1NC(=O)N1CCN(c2cc(C)cc(OC)c2)CC1` [Example 52, N-(6-Chloro-3-ethoxyfuro[2,3-b]pyrazin-2-yl)-4-(3-methoxy-5-methylphenyl)piperazine-1-carboxamide]: the IC50 was 1.68 µM in experiment [1]; 1.62 µM with HUVEC; 0.68 µM in [2]; less than 2.5 µM with SK-OV-3; 1.18 µM in [3]; less than 2.5 µM in the experiment with HT29. The IC50 came to 1.36 µM in experiment [4], 1.74 µM with HEK293 and 1.87 µM in the experiment on A549.

On to `CCOc1nc2oc(C)cc2nc1NC(=O)N1CCN(c2cc(C)cc(OC)c2)CC1` [Example 32, N-(3-Ethoxy-6-methylfuro[2,3-b]pyrazin-2-yl)-4-(3-methoxy-5-methylphenyl)piperazine-1-carboxamide], for which the IC50 in experiment [1] is 0.32 µM; with HUVEC, less than 2.5 µM; in experiment [2] it was 0.52 µM; in the experiment on SK-OV-3, less than 2.5 µM; in experiment [3], 0.44 µM; in the experiment with HT29 it was less than 2.5 µM. The figures for the IC50 (in [4]; with HEK293; in the experiment on A549) were 1.63 µM, 1.12 µM and 1.39 µM, respectively.

Regarding `COc1nc2oc(Cl)cc2nc1NC(=O)N1CCN(c2cc(C)cc(C)c2)CC1` [Example 45, N-(6-Chloro-3-methoxyfuro[2,3-b]pyrazin-2-yl)-4-(3,5-dimethylphenyl)piperazine-1-carboxamide], the IC50 in [1] is 0.68 µM; in the experiment on HUVEC, less than 2.5 µM; in experiment [2], 0.32 µM; in the experiment with SK-OV-3, less than 2.5 µM; in [3], 0.69 µM; in the experiment with HT29, less than 2.5 µM. The IC50 was determined as 1.68 µM in experiment [4], 2.01 µM with HEK293 and 1.81 µM in the experiment on A549.
